Entries after “also recorded” stand apart in the source; their conditions may differ.
Experiments:
[1] = in vivo; stated for o-vanillin, reported previously for its isomer vanillin (Beaudry 2010); cited from earlier work
[2] = test system: HEK-TLR2 stable transfectants; test: LDH release cytotoxicity assay; format: cell-based, human; conditions: C29 10 μM or 50 μM
Experimental: FIG. 7. C29 is not cytotoxic to HEK-TLR2 stable transfectants. Cells were pretreated for 1 hr with media, vehicle (65 μM NaOH), or C29 (10 μM or 50 μM) and then stimulated with P3C (200 ng/mL), P2C (200 ng/mL), or hTNF-α (300 ng/mL) for 1 hr in the presence of media, vehicle, or C29. Supernatants of cell cultures were collected and analyzed for LDH release as a measure of cell cytotoxicity with Triton X-lysed cells serving as the positive control. LDH release is representative of 1 of 2 independent experiments carried out in duplicate.
Cellular cytotoxicity was determined by measuring lactate dehydrogenase (LDH) activity released in the media after treatment with TLR agonist or TNF-α in the presence of media, vehicle (NaOH), or C29 using the CytoTox 96 nonradioactive cytotoxicity assay (Promega, Madison, WI) and quantified by measuring wavelength absorbance at 490 nm. Treatment of cells with Triton X-100 served as the positive control.

[3] = test system: MAPK and NF-κβ activation; test: Western analysis of MAPK and NF-κβ activation in murine peritoneal macrophages; format: cell-based; conditions: C29 50 μM, P3C 50 ng/mL
Experimental: FIG. 2. C29 inhibits ligand-induced interaction of TLR2 with MyD88 and blocks MAPK and NF-κβ activation. (A) THP-1 cells were cultured in the presence of PMA (20 ng/mL) for 24 hrs and washed twice in media. THP-1 human monocytes were pretreated with media, vehicle (195 μM NaOH), or C29 (150 μM) for 1 hr and treated with P3C (50 ng/mL) in the presence of media, vehicle, or C29 for 15 or 30 min. Co-immunoprecipitation (IP) was carried out using anti-MyD88 antibody and Western analysis (IB) using whole cell lysates. (B) Densitometry analysis (mean±SEM) of 3 independent experiments as shown in (A). (C) Murine peritoneal macrophages were pretreated for 1 hr with media, vehicle (65 μM NaOH), or C29 (50 μM) and treated with P3C (50 ng/mL) for 5-30 min in the presence of media, vehicle, or C29. IB was performed using whole cell lysates and antibodies directed against the signaling intermediates indicated. β-actin was probed as a loading protein. Panel A is representative of 3 independent experiments and panel B is the mean±SEM from 3 independent experiments (*, p≤0.05). Panel B is representative of 2 independent experiments.
Cells were treated and washed once with 1×PBS and lysed using buffer containing 20 mM HEPES (pH 7.4), 150 mM NaCl, 1 mM EDTA, 1 mM EGTA (pH 8.0), 50 mM NaF, 0.5% Triton X-100, 1 mM Na3VO4, 1 mM DTT, 1 mM PMSF, and protease inhibitor (Roche Applied Science, Indianapolis, IN). Cells were harvested and protein was quantified using BCA Protein assay reagents (Thermo Scientific/Pierce, Rockford, IL). Whole cell lysates (500 μg/500 μL) were precleared using 10 μL of pre-washed Protein G Agarose (Roche Applied Science, Indianapolis, IN) for 2 hours at 4° C. with rotation. Precleared samples were incubated with the respective antibody and rotated overnight at 4° C. Pre-washed Protein G (40 μL) was added to each sample and rotated for 4 h at 4° C. Beads were washed three times in lysis buffer (without protease inhibitor) and finally in complete lysis buffer. Beads were resuspended in 2× Laemmli Sample Buffer and boiled for 10 min. […]

[4] = test system: MyD88-independent pathway; test: IFN-β mRNA in murine macrophages stimulated with agonists that induce IFN-β; format: cell-based; conditions: C29 50 μM, 3 hrs
Experimental: FIG. 10. Examining the broader specificity of C29 for TLR2 signaling. (A, B) Total RNA was extracted from murine macrophages that had been pretreated for 1 hr with vehicle (65 μM NaOH) or C29 (50 μM) and then stimulated with P3C (50 ng/mL), P2C (100 ng/mL), zymosan (10 μg/mL), S. aureus LTA (1 μg/mL), poly(I:C) (10 μg/mL), LPS (100 ng/mL), R848 (10 μg/mL), or CpG ODN 1668 (5 μM) for 3 hrs in the presence of vehicle or C29. IL-1β and IFN-β mRNA were measured as described in FIG. 1, panel D. (C) THP-1 cells were plated in the presence of PMA (20 ng/mL) for 24 hrs and washed twice in media. Total RNA was extracted from cell cultures pretreated for 1 hr with vehicle (260 μM NaOH) or C29 (50 μM, 100 μM, or 200 μM) and then stimulated with zymosan (10 μg/mL) or S. aureus LTA (1 μg/mL) for 4 hrs in the presence of vehicle or C29. IL-1β mRNA was measured as described in FIG. 1, panel B. Quantitative real-time results represent the mean±SEM from 2 independent experiments each carried out in duplicate (*, p≤0.05; **, p≤0.01; ***, p≤0.001).
Cytokine gene expression was measured by qRT-PCR with transcript-specific primers using SYBR Green in the ABI Prism 7900 Fast Real Time PCR system (Applied Biosystems, Foster City, CA) as described (Cole L E, et al. (2006) Journal of immunology 176(11):6888-6899). […]

TLR2/6 = TLR2/6 (Homo sapiens, UniProt O60603); test: IL-1β mRNA in THP-1 cells stimulated with TLR2/6 agonists (P2C, zymosan); format: cell-based; design: expressed in transfected cells; conditions: C29 50, 100 or 200 μM
Sequence of TLR2/6 (O60603 21-784): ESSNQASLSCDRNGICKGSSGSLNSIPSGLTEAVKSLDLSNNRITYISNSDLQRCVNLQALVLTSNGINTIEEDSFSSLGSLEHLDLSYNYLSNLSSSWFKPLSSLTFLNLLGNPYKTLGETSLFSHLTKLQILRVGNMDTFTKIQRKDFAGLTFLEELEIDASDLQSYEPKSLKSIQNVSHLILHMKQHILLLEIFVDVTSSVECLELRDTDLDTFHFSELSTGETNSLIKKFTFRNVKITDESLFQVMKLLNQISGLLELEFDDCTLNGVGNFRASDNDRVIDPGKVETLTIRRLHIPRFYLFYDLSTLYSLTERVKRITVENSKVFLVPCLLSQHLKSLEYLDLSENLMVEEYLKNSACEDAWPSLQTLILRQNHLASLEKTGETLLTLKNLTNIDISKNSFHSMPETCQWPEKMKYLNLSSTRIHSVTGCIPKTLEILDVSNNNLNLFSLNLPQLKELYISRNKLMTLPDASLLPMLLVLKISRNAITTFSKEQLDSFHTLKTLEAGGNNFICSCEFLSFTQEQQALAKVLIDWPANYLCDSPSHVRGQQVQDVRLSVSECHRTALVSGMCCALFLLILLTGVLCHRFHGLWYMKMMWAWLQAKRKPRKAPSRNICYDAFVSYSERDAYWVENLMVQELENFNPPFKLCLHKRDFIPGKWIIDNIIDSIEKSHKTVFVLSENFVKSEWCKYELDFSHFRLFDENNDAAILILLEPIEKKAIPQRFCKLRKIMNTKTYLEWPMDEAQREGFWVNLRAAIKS

TNF-α-induced signaling = test: hTNF-α-induced IL-8 mRNA in HEK-TLR2 stable transfectants; format: cell-based, human; conditions: C29 10 μM or 50 μM, hTNF-α 300 ng/mL 1 hr

SMILES | bioavailability [1] | cytotoxicity (LDH release) [2] | P3C-induced NF-κβ activation ([3]; 5 to 30 min) | P3C-induced degradation of IκBα ([3]; 15 and 30 min) | P3C-induced MAPK activation ([3]; 30 min) | IFN-β mRNA (MyD88-independent pathway) [4] | P2C-induced IL-1β gene expression (TLR2/6; P2C 50 ng/mL, 1 h and 4 h) | zymosan-induced IL-1β mRNA (TLR2/6; zymosan 10 μg/mL 4 hrs) | TNF-α-induced signaling (IL-8 mRNA) (TNF-α-induced signaling)
COc1cccc(C=O)c1O [Compound C29L, ortho-vanillin] | poor bioavailability | – | – | – | – | – | – | – | –
COc1cccc(/C=N/c2cccc(C(=O)O)c2C)c1O [Compound C29] | – | no effect; also recorded: not cytotoxic | reduced NF-κβ activation | prevented P3C-induced degradation of IκBα | blocked robust MAPK activation | no significant inhibitory effect | inhibited P3C- and P2C-induced IL-1β gene expression significantly | blocked zymosan- and LTA SA-induced IL-1β mRNA dose-dependently | no effect
